Measurements reported in article PMC4450297, “Screening Active Compounds from Garcinia Species Native to China Reveals Novel Compounds Targeting the STAT/JAK Signaling Pathway” (BioMed Research International, 2015).

How the values were obtained:
Experiment in all cases: Cell panel screen (CellTiter-Glo)
Assay type in all cases: cell-based, human
Panc 03.27 = Panc 03.27 (Pancreas), 20 micromolar, 72 hrs
How it was run: (§1)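 Growth inhibition (%) was determined from luminescence proportional to cellular ATP after cells had been incubated with compound (20 μM final) for 72 h at 37°C, with matched DMSO controls and cell-free wells defining the range.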

RL95 = RL95 (Uterus), 20 micromolar, 72 hrs
How it was run: as §1

CW-2 = CW-2 (Colon), 20 micromolar, 72 hrs
How it was run: as §1

BT-549 = BT-549 (Breast), 20 micromolar, 72 hrs
How it was run: as §1

CCF-STTG1 = CCF-STTG1 (Brain), 20 micromolar, 72 hrs
How it was run: as §1

A704 = A704 (Kidney), 20 micromolar, 72 hrs
How it was run: as §1

MSTO-211-H = MSTO-211-H (Lung), 20 micromolar, 72 hrs
How it was run: as §1

HT-1197 = HT-1197 (Urinary bladder), 20 micromolar, 72 hrs
How it was run: as §1

NCI-H1623 = NCI-H1623 (Lung), 20 micromolar, 72 hrs
How it was run: as §1

ChaGo-K-1 = ChaGo-K-1 (Lung), 20 micromolar, 72 hrs
How it was run: as §1

A498 = A498 (listed under Lung), 20 micromolar, 72 hrs
How it was run: as §1

HGC-27 = HGC-27 (Stomach), 20 micromolar, 72 hrs
How it was run: as §1

Bel-7402 = Bel-7402 (Liver), 20 micromolar, 72 hrs
How it was run: as §1

HCC1569 = HCC1569 (Breast), 20 micromolar, 72 hrs
How it was run: as §1

HCC1395 = HCC1395 (Breast), 20 micromolar, 72 hrs
How it was run: as §1

NCI-H2347 = NCI-H2347 (Lung), 20 micromolar, 72 hrs
How it was run: as §1

BT-474 = BT-474 (Breast), 20 micromolar, 72 hrs
How it was run: as §1

C3A = C3A (Liver), 20 micromolar, 72 hrs
How it was run: as §1

NCI-H1770 = NCI-H1770 (Lung), 20 micromolar, 72 hrs
How it was run: as §1

NCI-H1694 = NCI-H1694 (Lung), 20 micromolar, 72 hrs
How it was run: as §1

C8166 = C8166 (Leukemia), 20 micromolar, 72 hrs
How it was run: as §1

NCI-H524 = NCI-H524 (Lung), 20 micromolar, 72 hrs
How it was run: as §1

HCC1599 = HCC1599 (Breast), 20 micromolar, 72 hrs
How it was run: as §1

T47D = T47D (Breast), 20 micromolar, 72 hrs
How it was run: as §1

ZR-75-30 = ZR-75-30 (Breast), 20 micromolar, 72 hrs
How it was run: as §1

J82 = J82 (Urinary bladder), 20 micromolar, 72 hrs
How it was run: as §1

SW13 = SW13 (Adrenal gland), 20 micromolar, 72 hrs
How it was run: as §1

HCC1937 = HCC1937 (Breast), 20 micromolar, 72 hrs
How it was run: as §1

HEC-1-A = HEC-1-A (Uterus), 20 micromolar, 72 hrs
How it was run: as §1

NCI-H2405 = NCI-H2405 (Lung), 20 micromolar, 72 hrs
How it was run: as §1

TCCSUP = TCCSUP (Urinary bladder), 20 micromolar, 72 hrs
How it was run: as §1

T98G = T98G (Brain), 20 micromolar, 72 hrs
How it was run: as §1

NCI-H28 = NCI-H28 (Lung), 20 micromolar, 72 hrs
How it was run: as §1

Colo 205 = details: Colo 205, 20 micromolar, 72 hrs
How it was run: as §1

M059J = M059J (Brain), 20 micromolar, 72 hrs
How it was run: as §1

HPAF-II = HPAF-II (Pancreas), 20 micromolar, 72 hrs
How it was run: as §1

Structure (SMILES) | Percent Inhibition (Panc 03.27) [%] | Percent Inhibition (RL95) [%] | Percent Inhibition (CW-2) [%] | Percent Inhibition (BT-549) [%] | Percent Inhibition (CCF-STTG1) [%] | Percent Inhibition (A704) [%] | Percent Inhibition (MSTO-211-H) [%] | Percent Inhibition (HT-1197) [%] | Percent Inhibition (NCI-H1623) [%] | Percent Inhibition (ChaGo-K-1) [%] | Percent Inhibition (A498) [%] | Percent Inhibition (HGC-27) [%] | Percent Inhibition (Bel-7402) [%] | Percent Inhibition (HCC1569) [%] | Percent Inhibition (HCC1395) [%] | Percent Inhibition (NCI-H2347) [%] | Percent Inhibition (BT-474) [%] | Percent Inhibition (C3A) [%] | Percent Inhibition (NCI-H1770) [%] | Percent Inhibition (NCI-H1694) [%] | other results
O=c1c2ccc(O)c(O)c2oc2cccc(O)c12 [gl-23] | -5 | -20 | -3 | -16 | -1 | -11 | -25 | -11 | 0 | -22 | 3 | -6 | -16 | 0 | -11 | -8 | -16 | -1 | -11 | -9 | Percent Inhibition (C8166): -1%; Percent Inhibition (NCI-H524): -30%; Percent Inhibition (HCC1599): 18%; Percent Inhibition (T47D): -4%; Percent Inhibition (ZR-75-30): 16%; Percent Inhibition (J82): -2%; Percent Inhibition (SW13): -10%; Percent Inhibition (HCC1937): -1%; Percent Inhibition (HEC-1-A): -6%; Percent Inhibition (NCI-H2405): -14%; Percent Inhibition (TCCSUP): -5%; Percent Inhibition (T98G): -2%; Percent Inhibition (NCI-H28): -10%; Percent Inhibition (Colo 205): -5%; Percent Inhibition (M059J): -5%; Percent Inhibition (HPAF-II): -5%
O=C(c1ccc(O)c(O)c1)c1c(O)cc(O)cc1O [gl-25] | -14 | -8 | -2 | -10 | 9 | -5 | -30 | 5 | 0 | -26 | -10 | -3 | -5 | 1 | -8 | -13 | -3 | -3 | -10 | -12 | Percent Inhibition (C8166): 3%; Percent Inhibition (NCI-H524): -74%; Percent Inhibition (HCC1599): 11%; Percent Inhibition (T47D): -8%; Percent Inhibition (ZR-75-30): -3%; Percent Inhibition (J82): 1%; Percent Inhibition (SW13): -10%; Percent Inhibition (HCC1937): 0%; Percent Inhibition (HEC-1-A): 5%; Percent Inhibition (NCI-H2405): -9%; Percent Inhibition (TCCSUP): -5%; Percent Inhibition (T98G): -2%; Percent Inhibition (NCI-H28): -9%; Percent Inhibition (Colo 205): -1%; Percent Inhibition (M059J): -9%; Percent Inhibition (HPAF-II): 1%
COc1ccc2c(=O)c3c(O)cc(O)cc3oc2c1OC [Go-14] | 4 | -5 | 5 | -16 | -1 | -13 | 11 | -3 | -10 | -16 | -2 | -2 | -8 | 2 | -8 | -2 | -23 | -7 | -4 | -3 | Percent Inhibition (C8166): 2%; Percent Inhibition (NCI-H524): -5%; Percent Inhibition (HCC1599): 0%; Percent Inhibition (T47D): -3%; Percent Inhibition (ZR-75-30): -20%; Percent Inhibition (J82): -8%; Percent Inhibition (SW13): -12%; Percent Inhibition (HCC1937): 3%; Percent Inhibition (HEC-1-A): -6%; Percent Inhibition (NCI-H2405): -10%; Percent Inhibition (TCCSUP): 6%; Percent Inhibition (T98G): 8%; Percent Inhibition (NCI-H28): -3%; Percent Inhibition (Colo 205): 8%; Percent Inhibition (M059J): 0%; Percent Inhibition (HPAF-II): 0%
